# Measurements taken from PMC12236194, “Precision dendritic-supramolecular glycan assemblies for probing multivalent lectin interactions” (Chemical Science, 2025).
# What was measured:
# [1] = Dynamic light scattering (DLS) hydrodynamic diameter in solution; assay type: physicochemical; conditions: H2O, 1 mM, 25 °C
# Method: S3. Dynamic Light Scattering (DLS)
# All measurements were conducted using a 384-well plate with individual sample volumes of 30
# µL. Solutions of man-2, man-3, and man-6 were freshly prepared in H2O (1 mM). For the glycoassembly analyses, two solution conditions were used: samples prepared in H2O (5 μM), and samples prepared in mixed DMSO/H2O solutions (85% v/v, 50 μM). The concentration of each glycoassembly solution was determined by absorption spectroscopy according to ε values (M-1cm-1) reported in Section S2.2. All sample solutions were filtered through a 0.22 μm PTFE syringe filter before being added to a well. The sample plate was then centrifuged using a Fisherbrand Mini Plate Spinner Centrifuge at 2500 rpm for 20 sec, and measurements were immediately collected at 25 °C. Before data collection, images were taken of each well to confirm the absence of bubbles or visible dust particles that affect the DLS measurements. The hydrodynamic diameter (Dh) values represent the mean ± standard deviation (σ) of the hydrodynamic size averaged for three (1 sec) scans and all data were analyzed using DYNAMICS […]
# S3.1.1. Measurement in H2O (1 mM)
# Figure S53. DLS measurements of man -2 (H O, 1 mM).
# S3.2.1. Measurement in H2O (1 mM)
# Figure S54. DLS measurements of man-3 (H2O, 1 mM). […]
# [2] = target: monomeric Griffithsin (GRFT); set-up: method as in PMID 17340634; conditions: monovalent sugar; cited from earlier work
Compound,Hydrodynamic diameter (Dh) [1],Kd [2]
O=Cc1ccc(OCc2cc(OCc3cn(CCOCCO[C@H]4O[C@H](CO)[C@@H](O)[C@H](O)[C@@H]4O)nn3)cc(OCc3cn(CCOCCO[C@H]4O[C@H](CO)[C@@H](O)[C@H](O)[C@@H]4O)nn3)c2)cn1 [man-2],1.6 ± 0.6 nm,
O=Cc1ccc(OCc2cc(OCc3cn(CCOCCO[C@H]4O[C@H](CO)[C@@H](O)[C@H](O)[C@@H]4O)nn3)c(OCc3cn(CCOCCO[C@H]4O[C@H](CO)[C@@H](O)[C@H](O)[C@@H]4O)nn3)c(OCc3cn(CCOCCO[C@H]4O[C@H](CO)[C@@H](O)[C@H](O)[C@@H]4O)nn3)c2)cn1 [man-3],1.8 ± 0.1 nm,
O=Cc1ccc(OCc2cc(OCc3cc(OCc4cn(CCOCCO[C@H]5O[C@H](CO)[C@@H](O)[C@H](O)[C@@H]5O)nn4)c(OCc4cn(CCOCCO[C@H]5O[C@H](CO)[C@@H](O)[C@H](O)[C@@H]5O)nn4)c(OCc4cn(CCOCCO[C@H]5O[C@H](CO)[C@@H](O)[C@H](O)[C@@H]5O)nn4)c3)cc(OCc3cc(OCc4cn(CCOCCO[C@H]5O[C@H](CO)[C@@H](O)[C@H](O)[C@@H]5O)nn4)c(OCc4cn(CCOCCO[C@H]5O[C@H](CO)[C@@H](O)[C@H](O)[C@@H]5O)nn4)c(OCc4cn(CCOCCO[C@H]5O[C@H](CO)[C@@H](O)[C@H](O)[C@@H]5O)nn4)c3)c2)cn1 [man-6],2.4 ± 0.2 nm,
OC[C@H]1O[C@H](O)[C@@H](O)[C@@H](O)[C@@H]1O [α-D-mannose],,~100 µM
